Measured values as given in patent US20220039395A1, “INSECT CONTROL AGENTS” (priority 2018, published 2022).
Entries after “also recorded” stand apart in the source; their conditions may differ. Numbered stars: 1 amine (or outer) side, 2 acyl side, 3 side chain; on linkers, the order of the positions; unused ones are H or OH. Peptide text beside a SMILES is read from it. * marks the point of attachment. X1 = Brc1ccc2c(c1)-c1cc(N*)ccc1C2; Suc = O=C(CCC(=O)[*:2])[*:1]

Legend:
Type in all cases: in vivo
[1] = system: Macrosiphum rosae; assay: Desiccation/starvation tolerance assay after peptide microinjection; conditions: for Reduction of LTime50 relative to control / Reduction of median survival relative to control: M. rosae, desiccation/starvation stress; for Documented effect on desiccation/starvation mortality / LTime50 (h), test / Median IQR survival (h), test: Macrosiphum rosae, microinjection; for Documented effect on desiccation/starvation mortality: final concentration ×10^−5 M, relative to vehicle control; for LTime50 (h), test / Median IQR survival (h), test: ×10^−5 M, desiccation and starvation stress, test group
Experimental: (§1) Neuropeptides were administered to test aphids via microinjection to allow for rapid mass screening of neuropeptide analogue efficacy. For this, native neuropeptides were diluted in double distilled water (DDH2O) to a concentration of 1×10^−5 M. Neuropeptide analogues were diluted in DDH2O to the following concentrations: kinin analogues 1728 (2.5×10^−5 M), 2139 (3.5×10^−5 M), 2139-Ac (3.5×10^−5 M); CAP2b analogues 1895 (3.5×10^−5 M), 1896 (3.5×10^−5 M), 1902 (3.5×10^−5 M), 2089 (3.9×10^−5 M), 2123 (1.0×10^−5 M), 2125 (1.0×10^−5 M), 2129 (2.0×10^−5 M). Once at the desired concentration, neuropeptide solutions were administered to test aphids at an injection volume of 9 nl based on total haemolymph volume, to produce an approximate 1:20 dilution of injection volume to haemolymph. Injections were performed using a pulled glass needle and a Nanoject II Auto-Nanoliter Injector (Drummond Scientific Company, Broomall, Pa.). A vehicle control was set up for each treatment/day of experiments to account for variation in needle pulling. For this, control aphids were injected with 9 nl of DDH2O and subsequently exposed to the same experiments as aphids receiving the neuropeptide treatment. Neuropeptide treated and vehicle control aphids were subsequently used in the stress bioassays detailed below.
(§2) Anholocyclic adults of mixed age of either M. persicae or M. rosae were selected from the stock cultures and treated with a native neuropeptide or neuropeptide analogue via microinjection using the method detailed above. Treated and vehicle control aphids were allowed to recover on excised leaves of the host plant for 1 h before being placed in an empty ventilated microcage (L=4 cm, 0=9.5 cm) at densities of 10 per cage. In total, 30-40 aphids were treated for each neuropeptide treatment group and a further 30-40 for the associated vehicle control group. From the point of placement in the microcage (taken as 0 h), aphid survival was checked every hour during daylight hours and approximately every 4 h during night-time hours until the final aphid died. Survival data were subsequently analysed using a Log-rank (Mantel-Cox) text in GraphPad Prism version 7.0. LTime50 (the time taken to kill 50% of the test population) values were calculated via Probit Analysis in Minitab 17 (Minitab Inc., State College, Pa.).

[2] = system: Myzus persicae; assay: as above; conditions: for Reduction of LTime50 relative to control / Reduction of median survival relative to control: M. persicae, desiccation/starvation stress; for Documented effect on desiccation/starvation mortality / LTime50 (h), test / Median ± IQR survival (h), test: Myzus persicae, microinjection; for Documented effect on desiccation/starvation mortality: final concentration ×10^−5 M, relative to vehicle control; for LTime50 (h), test / Median ± IQR survival (h), test: ×10^−5 M, desiccation and starvation stress, test group
Experimental: as §1, §2

[3] = system: Myzus persicae; assay: Feeding of aphids with peptides in artificial diet; life span and fecundity; conditions: M. persicae on artificial diet containing the peptide; mean ± SE
Experimental: A standard artificial diet for M. persicae was produced as described in Van Emden (2009) and provided the basal diet to which neuropeptide analogues were added for screening purposes. Neuropeptide analogues were diluted individually in the artificial diet to a pre-determined recommended concentration as follows: 1895 (3.5×10^-5 M) and 2019 (2.0×10^-5 M). Feeding apparatus were constructed using a set-up developed by […] et al (2009). For this, a piece of Parafilm was stretched over a Plexiglas ring (h=4 cm, Ø=3 cm) and 100 μl of the artificial diet containing the desired neuropeptide analogue was pipette onto the Parafilm membrane. A second piece of Parafilm, stretched to 4 times the original thickness, was stretched over the original layer, sandwiching the artificial diet between two layers of Parafilm. A strip of Parafilm was wrapped around the circumference of the Plexiglas ring, sealing in the diet. A plastic ring (h=1.2 cm, Ø=3.4 cm) was subsequently placed over the Parafilm layer, creating a walled chamber in which to house test aphids in contact with the Parafilm layer containing the artificial diet. Finally, a small Petri dish (h=1 cm, Ø=3.6 cm), modified for ventilation with net cloth, was placed on top of each feeding apparatus to prevent aphid escape. To obtain aphids for use in experiments, reproducing anholocyclic adults were placed on individual excised leaves of Chinese cabbage at densities of 5 adults per leaf and allowed to reproduce for 24 h. The stem of each excised leaf was held within a 0.5 mL Eppendorf tube containing water via a punctured hole in the Eppendorf lid, and placed individually within a microcage (L=4 cm, Ø=9.5 cm). Following 24 h, adults were removed and resultant first instar nymphs (<1 day old and synchronised in age to within 24 h) retained. Nymphs were allowed to develop on the Chinese cabbage for 5 days. On day 5, (3rd instar) nymphs were transferred onto the artificial diet containing a neuropeptide analogue at densities of 1 per feeding chamber and monitored daily until death. Aphids were transferred to fresh artificial diet (containing neuropeptide analogue) every 5 days. Life history traits recorded include age at first reproduction, number of nymphs produced per 24 h period, and lifespan. From these parameters, lifetime fecundity and daily fecundity were calculated. Control groups were set up involving aphids reared on the host plant, an artificial diet without a neuropeptide analogue, and an artificial diet containing the native CAPA neuropeptide.

For CC[C@H](C)[C@H](NC(=O)[C@H](CCCNC(=N)N)NC(=O)[C@@H]1CCCN1C(=O)[C@@H](NC(=O)[C@H](C)NC(=O)CCC(=O)Nc1ccc2c(c1)-c1cc(Br)ccc1C2)[C@@H](C)O)C(N)=O [compound 2129, 2Abf-Suc-ATPRI-NH2] ({X1-Suc}-ATPRI-NH2), which “Reduction of LTime50 relative to control” value [1] is on record?
The value was 11.6 h.

And the “Reduction of median survival relative to control” value [1]?
The value was 12.8 h.

And the “Documented effect on desiccation/starvation mortality” value [1]?
The value was “significantly increase mortality relative to the control; also recorded: significantly increased desiccation/starvation mortality; also recorded: Increases”.

What about the “LTime50 (h), test” value [1] of the same compound?
Its value is 24.3 | 12.7 h.

And the “Median IQR survival (h), test” value [1]?
Its value is 23.8 ± 20.5 | 11.0 ± 13.0 h.

And the “Reduction of LTime50 relative to control” value [2]?
Its value is 7.1 h.

And the “Reduction of median survival relative to control” value [2]?
Its value is 9.8 h.

What about the “Documented effect on desiccation/starvation mortality” value [2] of the same compound?
The value was “significantly increase mortality relative to the control; also recorded: significantly increased desiccation/starvation mortality; also recorded: Increases”.

And the “LTime50 (h), test” value [2]?
Its value is 15.9 | 8.8 h.

What about the “Median ± IQR survival (h), test” value [2] of the same compound?
Its value is 17.8 ± 12.0 | 8.0 ± 17.0 h.

And the “Age at 1st reproduction” value [3]?
Its value is 12.4 ± 0.7 days.

And the Ave. daily fecundity [3]?
Its Ave. daily fecundity is 1.2±0.1 nymphs.

What about the “Days as reproducing adult” value [3] of the same compound?
Its value is 7.17 ± 1.5.

And the “Life span” value [3]?
The value was 21.0 ± 2.3 days.

And the Lifetime fecundity [3]?
Its Lifetime fecundity is 8.8 ± 2.0 nymphs.

Which “Reduction of LTime50 relative to control” value [1] does the source give for 2Abf-Suc-FGPRL-NH2 [compound 1895] here?
The value was 9.6 h.

And the “Reduction of median survival relative to control” value [1]?
The value was 10.5 h.

What about the “Documented effect on desiccation/starvation mortality” value [1] of the same compound?
The value was “significantly increase mortality relative to the control; also recorded: significantly increased desiccation/starvation mortality; also recorded: Increases”.

What about the “LTime50 (h), test” value [1] of the same compound?
Its value is 18.7 | 9.1 h.

What about the “Median IQR survival (h), test” value [1] of the same compound?
The value was 17.5 ± 19.5 | 7.0 ± 12.5 h.

What about the “Reduction of LTime50 relative to control” value [2] of the same compound?
The value was 3.5 h.

And the “Reduction of median survival relative to control” value [2]?
The value was 4.0 h.

And the “Documented effect on desiccation/starvation mortality” value [2]?
The value was “significantly increase mortality relative to the control; also recorded: significantly increased desiccation/starvation mortality; also recorded: Increases”.

And the “LTime50 (h), test” value [2]?
Its value is 15.9 | 12.4 h.

What about the “Median ± IQR survival (h), test” value [2] of the same compound?
The value was 17.8 ± 12.0 | 13.8 ± 11.8 h.

What about the “Age at 1st reproduction” value [3] of the same compound?
Its value is 11.5 ± 0.5 days.

And the Ave. daily fecundity [3]?
Its Ave. daily fecundity is 1.1±0.1 nymphs.

What about the “Days as reproducing adult” value [3] of the same compound?
The value was 5.8 ± 1.8.

What about the “Life span” value [3] of the same compound?
Its value is 19.8 ± 2.5 days.

What about the Lifetime fecundity [3] of the same compound?
Its Lifetime fecundity is 6.4±2.0 nymphs.
